# Results as given in patent US20260294906A1, “TREATING PSORIASIS USING A SMALL MOLECULE INHIBITOR OF TUMOR NECROSIS FACTOR ALPHA” (SANOFI, priority 2023, published 2026).
# Entries after “also recorded” stand apart in the source; their conditions may differ.
# System: participants with mild to moderate psoriasis
# Experiment: Liver function laboratory tests in the clinical study
# Format: in vivo, human
# Experimental: Two study interventions were used, Compound 1 and placebo. The Compound 1 intervention comprised 4× tablets of Compound 1 50 mg twice daily, i.e. 200 mg BID, for 4 weeks. The placebo intervention was 4× tablets of placebo twice daily for 4 weeks. Tablets were administered orally.
# Laboratory tests (from at least 10 hours under fasting conditions for blood samples) included: • Hematology: red blood cell count, hematocrit, hemoglobin, white blood cell count with differential count (neutrophils, eosinophils, basophils, monocytes, and lymphocytes), platelets. • Biochemistry: • Plasma/serum electrolytes: sodium, potassium, chloride, calcium, • Liver function: AST, ALT, alkaline phosphatase, GGT, total and conjugated bilirubin, • Renal function: urea, creatinine, • Metabolism: glucose, albumin, total proteins, total cholesterol, triglycerides, • Potential muscle toxicity: CK, • International normalized ratio (INR), and activated partial thromboplastin time (aPTT), • C-reactive protein; the CRP levels were evaluated by an independent investigator who is not involved in the study to protect the blinding of the study. CRP values were provided by the independent investigator to the investigator in case of medical need. • Procalcitonin at screening, week 2 and EOS. • QuantiFERON-TB Gold (QFT) test.
# For AESI in this study, the Sponsor was to be informed immediately (i.e., within 24 hours), as per SAE notification guidelines, even if a seriousness criterion was not met, using the corresponding screens in the eCRF. • ALT increased >3×ULN. • QT prolongation (QTcF≥500 milli seconds [ms]) and/or a delta QTc change from baseline>60 ms (12-lead ECG). In the event of prolongation of QTc interval (automatic measurement)≥500 ms, confirmed by a manual reading by the Investigator or a physician delegated by the Investigator using the Fridericia formula for correcting QT, the participant was placed under supervision in a specialized setting. Investigational medicinal product administration was stopped, and appropriate blood samples collected. Subsequent ECG monitoring of the participant was then performed on a regular and clinically responsible basis until the QTc interval returned to a safe value as determined by the Investigator in agreement with the Sponsor. • Photosensitivity (Grade 2 and above AE due to sun exposure). • Pregnancy. • Symptomatic overdose. • An overdose (accidental or intentional) with the IMP is an event suspected by the Investigator or spontaneously notified by the participant (not based on systematic pills count) and defined as at least twice the intended dose within the intended therapeutic interval, adjusted according to the tested drug.
# Once the participant was included in the clinical trial, the following laboratory abnormalities were monitored, documented, and managed: • Neutropenia, characterized as neutrophils <1500/mm^3 or according to ethnic group (recorded as an AE only if at least 1 of the criteria listed above was met) • Thrombocytopenia, characterized as platelets <100,000/mm^3 confirmed with or without bleeding (recorded as an AE only if at least 1 of the criteria listed above was met) • Increase of ALT. Patients were monitored where 3 ULN<ALT≤5 ULN and total bilirubin was ≤2 ULN. […]
smiles,measurement,setting,value
"CN1C(=O)c2cccc(OC(F)F)c2[C@H]2C[C@@H]1c1nc3ccc(-c4cnc(C5(N)CCC5)nc4)cc3n12 [Compound 1, (7R,14R)-11-[2-(1-aminocyclobutyl)pyrimidin-5-yl]-1-(difluoromethoxy)-6-methyl-6,7-dihydro-7,14-methanobenzimidazo[1,2-b][2,5]benzodiazocin-5(14H)-one]",potentially clinically significant abnormality (PCSA) for ALT increase,200 mg BID,no PCSA for ALT increase
same,"total bilirubin, first participant","200 mg BID, Day 8, baseline 1.5 ULN",1.67 ULN
same,"total bilirubin, second participant","200 mg BID, day not given, baseline 1.3 ULN",1.56 ULN
same,Number of participants with total bilirubin increased >1.5 ULN,"200 mg BID, one single occasion",two
same,liver function tests / impact on liver parameters (in words),4-week clinical trial,"no signal for risks on liver function tests; also recorded: neither was any significant impact on cardiac parameters (e.g., QTcF interval) or liver parameters (e.g., AST, ALT, or bilirubin levels) observed"
